According to PMC7023064, “Design, Synthesis, and Evaluation of Novel 2-Methoxyestradiol Derivatives as Apoptotic Inducers through an Intrinsic Apoptosis Pathway” (Biomolecules, 2020):
Where two headings read alike, the source gives them in different places.

Experiments:
[1] = tested on: human breast adenocarcinoma MCF-7 cell lines; test: MTT cytotoxicity assay, MCF-7; format: cell-based
Method: Human breast adenocarcinoma MCF-7 cell lines, human breast cancer MDA-MB-231 cell lines, and the normal human liver L-O2 cell lines were provided by Nanjing KeyGen Biotech Co. Ltd. (Nanjing, China). MCF-7 cells were cultured in a base medium (90% RPMI-1640 and 10% FBS) at 37 °C, 5% CO2 and a saturated humidity atmosphere. MDA-MB-231 cells were cultured in a base medium (90% […] and 10% FBS) at 37 °C, 5% CO2 and a saturated humidity atmosphere. L-O2 cells were cultured in a base medium (90% DMEM and 10% FBS) at 37 °C, 5% CO2 and a saturated humidity atmosphere.
The cytotoxicity of the tested compounds was determined using the 3-(4,5-dimethyl-2-thiazolyl)-2,5-diphenyl-2-H-tetrazolium bromide (MTT) assay. Cells were seeded in 96-well plates and incubated in a 5% CO2 incubator at 37 °C. When the cells adhered, compounds at different concentrations were added to every well. After incubation for another 72 h, MTT solution (5 mg/mL) was added into each well and cells were incubated for an additional 4 h. The viable cells were stained with MTT and scanned with an electrophotometer at 570 nm. Each concentration treatment was done in triplicate wells. The half maximal inhibitory concentration (IC50) values were estimated by fitting the inhibition data to a dose-dependent curve using a logistic derivative equation.

[2] = molecular target: T1, estradiol receptor alpha (ERα) (Homo sapiens, UniProt P03372); test: Immunohistochemical (IHC) analysis of ERα; format: cell-based; settings: 5, 10, and 20 μM, MCF-7 cells, dose-dependent
T1 construct: endogenous in cells; host or cells: MCF-7
T1 sequence (P03372 1-595): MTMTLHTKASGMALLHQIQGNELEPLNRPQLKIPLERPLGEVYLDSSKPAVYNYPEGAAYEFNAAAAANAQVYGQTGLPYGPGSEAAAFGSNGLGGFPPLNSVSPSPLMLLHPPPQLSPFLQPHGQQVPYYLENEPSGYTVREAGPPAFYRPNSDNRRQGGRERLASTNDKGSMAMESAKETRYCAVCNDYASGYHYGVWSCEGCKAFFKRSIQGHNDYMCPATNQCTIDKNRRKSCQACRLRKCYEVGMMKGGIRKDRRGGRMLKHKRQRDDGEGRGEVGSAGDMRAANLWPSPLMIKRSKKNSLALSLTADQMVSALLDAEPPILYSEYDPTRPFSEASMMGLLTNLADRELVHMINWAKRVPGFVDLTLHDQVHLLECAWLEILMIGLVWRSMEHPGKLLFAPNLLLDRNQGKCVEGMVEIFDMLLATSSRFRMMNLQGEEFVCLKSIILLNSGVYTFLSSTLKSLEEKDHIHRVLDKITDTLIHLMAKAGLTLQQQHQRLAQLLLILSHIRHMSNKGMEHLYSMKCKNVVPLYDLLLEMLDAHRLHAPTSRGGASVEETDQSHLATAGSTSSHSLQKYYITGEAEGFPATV
Method: MCF-7 cells were seeded in culture plates and treated with compound 11/12a (0, 5, 10, and 20 μM) for 72 h. Cells were collected and mounted on a slide, fixed for 30 min with 4% paraformaldehyde, and washed three times with PBS. 1% Triton X-100 was added to each cell sample, and it was permeabilized at room temperature for 10 min, then washed three times with PBS. Two drops of 3% H2O2-methanol solution were added to each cell section. After being blocked at room temperature for 10 min, the section was washed three times with PBS. Then, 50–100 μL of ready-to-use goat serum was added and cells were incubated for 20 min at room temperature. Before the cell section was incubated at 37 °C for 2 h in a wet box, 50–100 μL of a primary antibody (1:200 dilution) against estradiol receptor alpha (ERα) (Bs-1427R, Bioss Co. Ltd., Beijing, China) was added, and then washed three times with PBS. Subsequently, 50 μL of enhancer was added and cells were incubated for 30 min at room temperature, then washed three times with PBS. Fifty microliters of a universal IgG antibody-Fab fragment-HRP multimer was added dropwise, and the mixture was incubated at 37 °C for 30 min, then soaked and washed three times with PBS. After 2 drops of freshly prepared DAB (DAB-1031, MaXi Biotech Co. Ltd., FuZhou, China) solution were added to each cell section, the dyeing depth was observed under the microscope. […]

MCF-7 cells = test: Western blotting of apoptosis proteins; format: cell-based, human; settings: 0, 5, 10, and 20 µM, 72 h, β-actin as control
Method: After the treatment of MCF-7 cells with compound 11/12a (0, 5, 10, and 20 μM) for 72 h, the total proteins of MCF-7 cells were extracted and their concentrations were balanced to the same level by BCA protein assay reagent (KGP902, KeyGen Biotech Co. Ltd., Nanjing, China), followed by 8 min of protein denaturation with SDS loading buffer at 100 °C. Proteins were separated by sodium dodecyl sulfate-polyacrylamide electrophoresis (SDS-PAGE) and transferred onto polyvinylidene fluoride (PVDF) membranes, which were blocked with 5 mL of 5% fat-free dry milk in 1× Tris-buffered saline (TBS) containing 0.05% Tween 20 for 2 h. Then the membranes were incubated with Apaf-1 (Abcam, no: ab234436), Bax (Abcam, no: ab32503), Bcl-2 (Abcam, no: ab692), Bcl-xL (Abcam, no: ab32370), caspase-3 (Abcam, no: ab184787), caspase-8 (Abcam, no: ab25901), caspase-9 (Abcam, no: ab219590), cytochrome c (Abcam, no: ab133504), and β-actin (Abcam, no: ab8226) antibodies at 4 °C overnight, followed by treatment with secondary horseradish-peroxidase-conjugated anti-rabbitIgG (KeyGen Biotech Co. Ltd., no: KGAA35) for 2 h. Membranes were finally scanned in a ChemiDoc MP Imaging System (Bio-Rad) after 2 min incubation in Clarity Western ECL Substrate (Bio-Rad).

Molecule	IC50 ([1]; MTT, 72 h, mean ± SD of three experiments, read-out: IC50 MCF-7) [µM]	IC50 ([1]; Table 2, mean ± SD of three experiments, read-out: IC50 for MCF-7) [µM]	pIC50 for MCF-7 ([1]; pIC50 = −log(IC50))	interaction with ERα (nuclear colour, IOD value) [2]	protein expressions of Apaf-1, Bax, caspase-3, caspase-8, caspase-9, and cytochrome c (MCF-7 cells)	protein expressions of Bcl-2 and Bcl-xL (MCF-7 cells)	IC50 ([1]; Homo sapiens, MCF7, MTT, 72 h, mean ± SD of three experiments, read-out: IC50 MCF-7) [µM]	IC50 ([1]; Homo sapiens, MCF7, Table 2, mean ± SD of three experiments, read-out: IC50 for MCF-7) [µM]	IC50 ([1]; Homo sapiens, MCF7, pIC50 = −log(IC50), read-out: pIC50 for MCF-7 (converted)) [µM]
17 β-[6-(Uracil-3-yl)-Hexyloxy]-2-Methoxy-Estra-1,3,5(10)-Triene-3-ol [Compound 12a]	11.2 ± 0.46	11.2 ± 0.46	4.95	specific binding	increased in a dose-dependent manner	obviously decreased			
COc1cc2c(cc1O)CC[C@@H]1[C@@H]2CC[C@]2(C)[C@@H](OCCCCCCCCn3c(=O)ccn([C@@H]4O[C@H](CO)[C@@H](O)[C@H]4O)c3=O)CC[C@@H]12 [Compound 11, 17 β-[8-(1-β-D-Ribofuranosyluracil-3-yl)-Octyloxy]-2-Methoxy-Estra-1,3,5(10)-Triene-3-ol]				specific binding	increased in a dose-dependent manner	obviously decreased	13.9 ± 0.16	13.9 ± 0.16	13.8
